# Laboratory results from ChEMBL document CHEMBL1806473, “Structure-based optimization of click-based histone deacetylase inhibitors” (Eur J Med Chem, 2011).
# Target: Histone deacetylase
# Experiment: Inhibition of HDAC in human HeLa cells using Ac-Arg-Gly-Lys(Ac)-AMC as fluorescent substrate after 20 mins by fluorescence assay
# Format: cell-based
row,Structure (SMILES),IC50
1,CCCC(/C=C/c1ccccc1)n1cc(/C=C/C(=O)NO)nn1 (stereo not drawn),132 nM
2,CCC(/C=C/c1ccccc1)n1cc(/C=C/C(=O)NO)nn1 (stereo not drawn),55 nM
3,O=C(/C=C/c1cn(C(/C=C/c2ccccc2)Cc2ccc3ccccc3c2)nn1)NO (stereo not drawn),94 nM
4,CCCCC(/C=C/c1ccccc1)n1cc(/C=C/C(=O)NO)nn1 (stereo not drawn),137 nM
5,O=C(/C=C/c1cn(C(/C=C/c2ccccc2)Cc2nccs2)nn1)NO (stereo not drawn),171 nM
6,O=C(/C=C/c1cn(C(/C=C/c2ccccc2)Cc2cccc3ccccc23)nn1)NO (stereo not drawn),111 nM
7,O=C(/C=C/c1cn(C(/C=C/c2ccccc2)C2CCCC2)nn1)NO (stereo not drawn),115 nM
8,O=C(/C=C/c1cn(C(/C=C/c2ccccc2)C2CCC2)nn1)NO (stereo not drawn),54 nM
9,CC(C)CC(/C=C/c1ccccc1)n1cc(/C=C/C(=O)NO)nn1 (stereo not drawn),838 nM
10,C=CCC(/C=C/c1ccccc1)n1cc(/C=C/C(=O)NO)nn1 (stereo not drawn),90 nM
11,O=C(/C=C/c1cn(C(/C=C/c2ccccc2)Cc2cccc(Oc3ccccc3)c2)nn1)NO (stereo not drawn),510 nM
12,O=C(/C=C/c1cn(C(/C=C/c2ccccc2)Cc2cccc(-c3ccccc3)c2)nn1)NO (stereo not drawn),403 nM
13,CC(C)(C)C(/C=C/c1ccccc1)n1cc(/C=C/C(=O)NO)nn1 (stereo not drawn),18 nM
